From ChEMBL document CHEMBL3779848, “Effect of chlorine substituent on cytotoxic activities: Design and synthesis of systematically modified 2,4-diphenyl-5H-indeno[1,2-b]pyridines” (Bioorg Med Chem Lett, 2016)
Where a name gives a salt, the structure may show the parent alone.

Assays:
T47D [1] = test: Cytotoxicity against human T47D cells after 3 days by CCK8 assay; format: functional, cell-based; details: 72 h
[2] = Cytotoxicity against human HCT15 cells after 3 days by CCK8 assay; format: functional, cell-based; details: HCT-15, 72 h
HeLa [3] = test: Cytotoxicity against human HeLa cells after 3 days by CCK8 assay; format: functional, cell-based; details: 72 h
[4] = target: DNA topoisomerase 2-alpha (Homo sapiens) (UniProt P11388); test: Inhibition of human recombinant DNA topoisomerase 2alpha at 100 uM assessed as relaxation of supercoiled DNA pBR322 after 30 mins by Agarose gel electrophoresis
[5] = target: T1, DNA topoisomerase 1 (Homo sapiens) (UniProt P11387); test: Inhibition of human recombinant DNA topoisomerase 1 at 100 uM assessed as relaxation of supercoiled DNA pBR322 after 30 mins by Agarose gel electrophoresis
T1 sequence (whole entry): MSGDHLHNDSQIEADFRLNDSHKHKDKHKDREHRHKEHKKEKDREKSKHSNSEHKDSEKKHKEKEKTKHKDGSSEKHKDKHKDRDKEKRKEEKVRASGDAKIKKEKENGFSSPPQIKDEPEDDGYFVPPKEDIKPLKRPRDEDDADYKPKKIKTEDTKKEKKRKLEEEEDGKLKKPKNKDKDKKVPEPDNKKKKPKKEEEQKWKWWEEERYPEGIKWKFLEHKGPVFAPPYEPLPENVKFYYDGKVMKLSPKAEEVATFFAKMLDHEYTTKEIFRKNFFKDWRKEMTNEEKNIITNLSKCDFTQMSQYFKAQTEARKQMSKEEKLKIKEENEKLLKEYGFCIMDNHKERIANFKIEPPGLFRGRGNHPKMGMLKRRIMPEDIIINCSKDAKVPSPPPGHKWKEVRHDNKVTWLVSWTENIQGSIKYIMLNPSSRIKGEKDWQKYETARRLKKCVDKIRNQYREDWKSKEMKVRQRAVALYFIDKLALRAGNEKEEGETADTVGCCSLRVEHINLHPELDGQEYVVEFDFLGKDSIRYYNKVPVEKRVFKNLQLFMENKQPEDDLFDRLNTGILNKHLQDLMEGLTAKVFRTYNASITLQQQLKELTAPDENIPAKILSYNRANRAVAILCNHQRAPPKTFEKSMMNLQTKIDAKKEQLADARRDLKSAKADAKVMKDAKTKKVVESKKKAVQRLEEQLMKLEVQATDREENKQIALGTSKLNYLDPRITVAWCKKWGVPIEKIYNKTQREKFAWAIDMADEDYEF

[6] = Potency index, ratio of IC50 for adriamycin to IC50 for test compound for cytotoxicity against human HCT15 cells; format: functional, HCT-15
HeLa [7] = test: Potency index, ratio of IC50 for adriamycin to IC50 for test compound for cytotoxicity against human HeLa cells; format: functional
T47D [8] = test: Potency index, ratio of IC50 for adriamycin to IC50 for test compound for cytotoxicity against human T47D cells; format: functional
[9] = target: T1, DNA topoisomerase 1 (Homo sapiens); test: Inhibition of human recombinant DNA topoisomerase 1 at 20 uM assessed as relaxation of supercoiled DNA pBR322 after 30 mins by Agarose gel electrophoresis

Sequence of DNA topoisomerase 2-alpha (Homo sapiens) (P11388 whole entry): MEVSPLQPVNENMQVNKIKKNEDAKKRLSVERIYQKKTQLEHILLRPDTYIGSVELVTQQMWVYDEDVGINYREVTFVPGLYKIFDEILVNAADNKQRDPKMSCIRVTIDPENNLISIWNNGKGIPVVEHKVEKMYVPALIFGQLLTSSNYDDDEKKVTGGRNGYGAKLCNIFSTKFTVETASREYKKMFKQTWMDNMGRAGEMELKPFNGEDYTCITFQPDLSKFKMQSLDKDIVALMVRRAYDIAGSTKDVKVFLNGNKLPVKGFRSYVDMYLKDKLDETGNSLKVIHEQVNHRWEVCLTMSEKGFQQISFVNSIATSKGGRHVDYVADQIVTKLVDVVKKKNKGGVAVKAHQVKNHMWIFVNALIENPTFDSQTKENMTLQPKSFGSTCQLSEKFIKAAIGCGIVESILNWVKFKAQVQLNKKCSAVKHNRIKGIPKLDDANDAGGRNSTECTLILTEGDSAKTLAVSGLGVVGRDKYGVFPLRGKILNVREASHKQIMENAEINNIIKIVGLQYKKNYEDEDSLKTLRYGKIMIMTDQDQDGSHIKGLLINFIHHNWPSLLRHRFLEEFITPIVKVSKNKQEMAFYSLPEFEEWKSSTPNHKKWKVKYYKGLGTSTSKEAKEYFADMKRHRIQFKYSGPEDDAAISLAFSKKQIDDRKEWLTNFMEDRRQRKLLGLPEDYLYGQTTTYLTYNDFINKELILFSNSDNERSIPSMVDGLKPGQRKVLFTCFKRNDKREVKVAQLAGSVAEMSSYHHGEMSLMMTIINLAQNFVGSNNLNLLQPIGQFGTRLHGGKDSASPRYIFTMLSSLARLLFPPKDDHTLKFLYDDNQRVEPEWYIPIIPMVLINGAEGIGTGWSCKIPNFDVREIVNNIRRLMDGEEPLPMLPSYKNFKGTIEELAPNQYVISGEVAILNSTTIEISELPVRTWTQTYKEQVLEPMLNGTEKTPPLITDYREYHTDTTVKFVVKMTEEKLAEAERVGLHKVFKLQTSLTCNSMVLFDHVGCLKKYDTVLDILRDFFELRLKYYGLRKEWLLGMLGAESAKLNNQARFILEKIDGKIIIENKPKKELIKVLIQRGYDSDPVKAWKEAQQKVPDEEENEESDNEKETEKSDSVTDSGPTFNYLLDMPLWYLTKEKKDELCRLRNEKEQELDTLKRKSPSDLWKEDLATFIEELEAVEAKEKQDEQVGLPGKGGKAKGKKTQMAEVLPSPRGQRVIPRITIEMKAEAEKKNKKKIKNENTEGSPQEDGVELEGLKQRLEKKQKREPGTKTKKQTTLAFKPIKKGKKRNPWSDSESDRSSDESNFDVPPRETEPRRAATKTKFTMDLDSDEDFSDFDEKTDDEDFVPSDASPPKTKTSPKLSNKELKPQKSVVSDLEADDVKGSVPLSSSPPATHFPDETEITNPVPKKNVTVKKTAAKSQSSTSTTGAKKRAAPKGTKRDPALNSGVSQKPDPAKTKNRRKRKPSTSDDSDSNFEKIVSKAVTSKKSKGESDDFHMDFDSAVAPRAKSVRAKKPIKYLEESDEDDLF

Row | SMILES | IC50 (T47D [1]) | IC50 [2] | IC50 (HeLa [3]) | inhibition [4] | inhibition [5] | Ratio IC50 [6] | Ratio IC50 (HeLa [7]) | Ratio IC50 (T47D [8]) | inhibition [9]
1 | Oc1ccccc1-c1cc(-c2cccc(Cl)c2)c2c(n1)-c1ccccc1C2 | > 50000 nM | > 50000 nM | > 50000 nM | 2.8% | 1.1% | – | – | – | –
2 | Oc1ccc(-c2cc(-c3ccc(Cl)cc3)c3c(n2)-c2ccccc2C3)cc1 | 880 nM | 930 nM | 2450 nM | 8.5% | 19.1% | 0.11 | 0.33 | 1.67 | –
3 | Oc1ccccc1-c1cc(-c2ccccc2Cl)c2c(n1)-c1ccccc1C2 | > 50000 nM | > 50000 nM | > 50000 nM | 4.8% | 0% | – | – | – | –
4 | Oc1ccccc1-c1cc(-c2ccc(Cl)cc2)c2c(n1)-c1ccccc1C2 | > 50000 nM | > 50000 nM | > 50000 nM | 2.8% | 8.3% | – | – | – | –
5 | c1ccc(-c2cc(-c3ccccc3)c3c(n2)-c2ccccc2C3)cc1 | 26800 nM | > 50000 nM | 17300 nM | 17.8% | 0% | – | – | – | –
6 | Oc1cccc(-c2cc(-c3ccc(Cl)cc3)nc3c2Cc2ccccc2-3)c1 | 1360 nM | 1880 nM | 6580 nM | 3.9% | 0% | 0.05 | 0.12 | 1.08 | –
7 | Oc1ccccc1-c1cc(-c2ccccc2)c2c(n1)-c1ccccc1C2 | > 50000 nM | > 50000 nM | > 50000 nM | 36.4% | 1.3% | – | – | – | –
8 | Oc1cccc(-c2cc(-c3ccccc3)nc3c2Cc2ccccc2-3)c1 | 1550 nM | 1350 nM | 4000 nM | 70.5% | 20.6% | 0.91 | 0.22 | 0.86 | –
9 | Oc1ccc(-c2cc(-c3ccccc3Cl)nc3c2Cc2ccccc2-3)cc1 | 790 nM | 1820 nM | 2700 nM | 3.5% | 0% | 0.05 | 0.3 | 1.86 | –
10 | Oc1ccc(-c2cc(-c3ccccc3Cl)c3c(n2)-c2ccccc2C3)cc1 | 1630 nM | 840 nM | 3410 nM | 1.6% | 15.5% | 0.12 | 0.24 | 0.9 | –
11 | Oc1ccccc1-c1cc(-c2cccc(Cl)c2)nc2c1Cc1ccccc1-2 | > 50000 nM | 30300 nM | 17100 nM | 5.4% | 0% | – | – | – | –
12 | Oc1ccccc1-c1cc(-c2ccc(Cl)cc2)nc2c1Cc1ccccc1-2 | > 50000 nM | > 50000 nM | > 50000 nM | 2.7% | 0% | – | – | – | –
13 | Oc1cccc(-c2cc(-c3ccc(Cl)cc3)c3c(n2)-c2ccccc2C3)c1 | 1490 nM | 2090 nM | 2270 nM | 3.8% | 5.8% | 0.05 | 0.36 | 0.99 | –
14 | Oc1cccc(-c2cc(-c3ccccc3)c3c(n2)-c2ccccc2C3)c1 | 3930 nM | 2710 nM | 2990 nM | 76% | 2.3% | 0.45 | 0.29 | 0.34 | –
15 | CC[C@@]1(O)C(=O)OCc2c1cc1n(c2=O)Cc2cc3ccccc3nc2-1 [CAMPTOTHECIN] | 11200 nM | 1290 nM | 590 nM | – | – | – | – | – | –
16 | Oc1cccc(-c2cc(-c3ccccc3Cl)nc3c2Cc2ccccc2-3)c1 | 310 nM | 400 nM | 2010 nM | 3.1% | 0% | 0.25 | 0.41 | 4.74 | –
17 | Oc1ccccc1-c1cc(-c2ccccc2Cl)nc2c1Cc1ccccc1-2 | 6640 nM | 6230 nM | 7010 nM | 1.9% | 0.8% | – | – | – | –
18 | Oc1cccc(-c2cc(-c3cccc(Cl)c3)c3c(n2)-c2ccccc2C3)c1 | 1850 nM | 1590 nM | 1910 nM | 4.4% | 7.5% | 0.06 | 0.43 | 0.79 | –
19 | COc1cc([C@@H]2c3cc4c(cc3[C@@H](O[C@@H]3O[C@@H]5CO[C@@H](C)O[C@H]5[C@H](O)[C@H]3O)[C@H]3COC(=O)[C@H]23)OCO4)cc(OC)c1O [ETOPOSIDE] | 1840 nM | 2820 nM | 180 nM | – | – | – | – | – | –
20 | COc1cccc2c1C(=O)c1c(O)c3c(c(O)c1C2=O)C[C@@](O)(C(=O)CO)C[C@@H]3O[C@H]1C[C@H](N)[C@H](O)[C@H](C)O1 [DOXORUBICIN HYDROCHLORIDE] | – | – | 820 nM | – | – | – | – | – | –
21 | Oc1ccc(-c2cc(-c3cccc(Cl)c3)c3c(n2)-c2ccccc2C3)cc1 | 1630 nM | 810 nM | 3680 nM | 4.9% | 35.5% | 0.12 | 0.22 | 0.9 | 2.8%
22 | Oc1ccc(-c2cc(-c3ccccc3)c3c(n2)-c2ccccc2C3)cc1 | 2100 nM | 2010 nM | 3930 nM | 80.6% | 5.2% | 0.61 | 0.22 | 0.63 | –
23 | Oc1ccc(-c2cc(-c3ccc(Cl)cc3)nc3c2Cc2ccccc2-3)cc1 | 1270 nM | 870 nM | 4340 nM | 3.2% | 1.4% | 0.11 | 0.19 | 1.16 | –
24 | Oc1ccc(-c2cc(-c3cccc(Cl)c3)nc3c2Cc2ccccc2-3)cc1 | 1420 nM | 310 nM | 5040 nM | 3% | 0% | 0.32 | 0.16 | 1.03 | –
25 | Oc1ccc(-c2cc(-c3ccccc3)nc3c2Cc2ccccc2-3)cc1 | 1360 nM | 2150 nM | 4840 nM | 65.9% | 25.9% | 0.57 | 0.18 | 0.98 | –
26 | Oc1cccc(-c2cc(-c3cccc(Cl)c3)nc3c2Cc2ccccc2-3)c1 | 1320 nM | 3090 nM | 4590 nM | 3.2% | 0% | 0.03 | 0.18 | 1.11 | –
27 | Oc1cccc(-c2cc(-c3ccccc3Cl)c3c(n2)-c2ccccc2C3)c1 | 2190 nM | 1170 nM | 2650 nM | 6.7% | 29.3% | 0.08 | 0.31 | 0.67 | –
28 | Oc1ccccc1-c1cc(-c2ccccc2)nc2c1Cc1ccccc1-2 | > 50000 nM | > 50000 nM | > 50000 nM | 69.6% | 15.1% | – | – | – | –
